Test system: otherwise abstinent person
Experiment: Human use of Flumazenil during a period of urges for a substance of abuse
Assay type: in vivo
Details: placed into the blood stream as quickly as possible during a period of urges
Excerpt: While an IV might accomplish the above noted task, it is not realistic for a person, after having undergone detoxification, to have repeated IV therapies daily, to prevent a relapse so as not become substance abuse dependent again. Such a person would have to go to a treatment location where an IV can be administered.

CCOC(=O)c1ncn2c1CN(C)C(=O)c1cc(F)ccc1-2 [Flumazenil]
Urge for a substance of abuse such as alcohol: the urge will disappear

Source: US20060172996A1, “Method of preventing relapse in the abstinent substance dependent individual” (priority 2005, published 2006)
